# Counter-ions that a name gives are not always drawn.
# Key:
# mouse splenocytes = experiment: Activin A and BAFF expression in mouse splenocytes; type: cell-based; conditions: low dose P4N
# Experimental: FIGS. 14A-14C depict P4N-induced mouse B cell proliferation via the Activin A/BAFF pathway. (A) The proliferation of P4N-treated splenocytes. Splenocytes isolated from three mice were individually treated with increasing concentrations of P4N for 48 h and their proliferation was analyzed by MTT assay. The data are reported as the proliferation index. […] (B) The proliferation of B cells in mouse splenocytes treated with low doses of P4N. After treatment with P4N for 48 h, B-cells were identified by CD19 surface marker staining and the cell number was calculated following a flow cytometer analysis. […] Levels of Activin A and BAFF transcripts were measured by RT-PCR. Each sample obtained from 3 different mice; N, no treatment; P, P4N-treatment.
# Reverse transcription PCR. Human PBMCs or THP-1 cells were treated with P4N, and then the mRNA expression of INHBA and BAFF in these cells was measured by reverse transcription PCR. Briefly, total cellular RNA was extracted with Trizol reagent (Invitrogen) and reverse-transcribed into cDNA using the Superscript RT-kit (Invitrogen). The cDNA of INHBA and BAFF were then amplified by PCR. GAPDH cDNA in the samples was used to normalize the loading amounts in each reaction. Finally, PCR products were resolved by electrophoresis on 2% agarose gels and visualized with ethidium bromide.
# LTA4H = molecular target: T1, LTA4H (Homo sapiens, UniProt P09960); experiment: LTB4 ELISA in THP-1 culture media; type: cell-based; conditions: THP-1, 3 μM P4N
# T1 construct: THP-1 cells (1×10^6 cells/ml/well) in a 24-well culture plate; endogenous in cells; host or cells: THP-1 cells (BCRC, Hsinchu, Taiwan)
# T1 sequence (P09960 1-611): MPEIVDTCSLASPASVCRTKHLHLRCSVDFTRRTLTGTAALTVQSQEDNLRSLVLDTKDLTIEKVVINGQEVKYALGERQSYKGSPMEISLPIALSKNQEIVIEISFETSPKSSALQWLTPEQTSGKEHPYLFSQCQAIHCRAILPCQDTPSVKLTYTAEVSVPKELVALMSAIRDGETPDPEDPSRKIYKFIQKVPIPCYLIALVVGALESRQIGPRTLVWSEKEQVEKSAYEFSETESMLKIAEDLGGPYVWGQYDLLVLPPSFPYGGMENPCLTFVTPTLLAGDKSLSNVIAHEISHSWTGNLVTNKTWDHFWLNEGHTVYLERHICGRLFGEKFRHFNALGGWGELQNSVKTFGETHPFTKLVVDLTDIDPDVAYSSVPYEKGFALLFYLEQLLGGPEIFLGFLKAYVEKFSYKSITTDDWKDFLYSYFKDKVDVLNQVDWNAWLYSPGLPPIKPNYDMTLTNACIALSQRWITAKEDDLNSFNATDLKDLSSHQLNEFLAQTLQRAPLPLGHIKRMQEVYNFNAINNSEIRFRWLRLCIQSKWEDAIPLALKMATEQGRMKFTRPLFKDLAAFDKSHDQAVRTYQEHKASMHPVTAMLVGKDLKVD
# Experimental: ELISA assays. THP-1 cells (1×10^6 cells/ml/well) in a 24-well culture plate were pretreated with 10 μM bestatin (a LTA4H inhibitor, Sigma-Aldrich) for 2 h and then treated with 3 μM P4N for various time intervals. The levels of LTB4 in the culture media were determined by the LTB4 (Enzo Life Sciences, Farmingdale, N.Y.) (R&D) ELISA Kits. The amount of TNF-α, IL-8 and Activin A in cultured media were measured in a similar manner.
# [1] = In vivo effects of P4N on antibody production and B cell differentiation (EGFP immunization); set-up: species or system BALB/c mice
# Experimental: In vivo effects of P4N on antibody production and B cell differentiation. Mice were immunized and boosted with 100 μg EGFP in 100 μl of PBS by intraperitoneal injection once every week and simultaneously treated with or without 5 mg/kg P4N once or three times per week. Blood samples were collected from the retro-orbital plexus of the mice every week. The titers of anti-EGFP antibodies in sera were measured by enzyme-linked immunosorbent assay (ELISA). Briefly, each well of a microtiter plate (Nunc, Wiesbaden, Germany) was coated with 100 ng of rEGFP in 100 μl of PBS. The sera were 6400× diluted by PBS and added to the antigen-coated wells, and their titers were measured as described above. The isotypes of anti-EGFP antibodies in sera were also measured as described previously.
# The splenocytes of P4N-treated or untreated mice were harvested and probed with anti-CD19-FITC, anti-CD23-APC, anti-CD38-APC, anti-CD27-APC, anti-CD138-APC, anti-CD5-PE or anti-CD1d-Alexa 647 (BioLegend) antibodies and analyzed by flow cytometry (BD Biosciences). The definitions of the cell types were as described above, except for memory B cells (CD19+CD27+) and plasma cells (CD19+CD138+). The indices of different types of B cell proliferation were calculated as follows: (the number of splenocytes×the percentage of each B cell population in treated splenocytes)/(the number of splenocytes×the percentage of each B cell population in untreated splenocytes).
# human PBMCs = experiment: Activin A and BAFF expression in human PBMCs; type: cell-based; conditions: low dose P4N (3 μM)
# Experimental: FIGS. 5A-5F depict the expression of Activin A/BAFF induced by P4N treatments. (A) P4N induced Activin A or BAFF expression in human PBMCs as determined by RT-PCR. S1-S5 display different individual blood samples collected from 5 different human donors; N, no treatment; P, P4N-treatment (3 μM). The change in Activin A and BAFF expression (mean of 5 patients) relative to the control (NC) is plotted as a histogram (B) The effect of increasing dosages of P4N for 12 h on mRNA and protein levels of Activin A or BAFF in THP-1 cells was analyzed by RT-PCR and ELISA. (C) The effect of 6 μM P4N on mRNA and protein levels of Activin A or BAFF in THP-1 cells was determined at a different time period. (D) The effect of different inhibitors on Activin A-induced BAFF expression was examined. The expression of BAFF mRNA in inhibitor-treated THP-1 cells was determined by RT-PCR, and (E) BAFF protein secretion was measured by ELISA. (F) The effect of THP-1 conditioned media on the proliferation of Raji cells and OKT3 hybridoma cells were determined. […] The results are expressed as % viable cells relative to the control (NC, media from untreated THP-1 cells). […]
# Reverse transcription PCR. Human PBMCs or THP-1 cells were treated with P4N, and then the mRNA expression of INHBA and BAFF in these cells was measured by reverse transcription PCR. […]
structure (smiles),measurement,setting,value
"C[C@H](Cc1ccc(OCCN2CCCCC2)c(OCCN2CCCCC2)c1)[C@@H](C)Cc1ccc(OCCN2CCCCC2)c(OCCN2CCCCC2)c1 [P4N, meso-2,3-dimethyl-1,4-bis(3,4-[2-(piperidino)ethoxyphenyl])butane tetrakishydrochloride salt]",gene expression and protein production of Activin A and BAFF,mouse splenocytes,increase their gene expression and protein production
same,production of LTA4H reaction product LTB4,LTA4H,increased the production
same,total specific anti-EGFP Ig production,[1]; 5 mg/kg P4N once or three times a week with EGFP,dramatically enhanced
same,B cell differentiation to plasma cells,[1]; compared to EGFP immunization,greatly stimulated
same,"IgG1, IgG2b and IgA production",[1]; immunization with P4N,significantly increased
same,gene expression and protein production of Activin A and BAFF,human PBMCs,increase their gene expression and protein production
